# From patent US8269026B2, “Lupane derivatives useful for treating HIV” (priority 2008, dated 2012)
# Structures can show the parent of a compound that is named as a salt.
# Tested on: HIV-1 (HIVIIIB) replication in MT2 cell line
# Assay: HIV-1 replication in MT2 cell line with and without 30% human serum (viral RT activity in supernatant)
# Assay type: cell-based
# Conditions: Human immunodeficiency virus 1, MT2 cells, with 30% human serum, average IC50 if tested more than once, read-out: MT2 (HIVIIIB) with HS 30% IC50 range
# Outline: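 Read-out is supernatant reverse transcriptase activity on day 5 post-infection, giving IC50 and IC90. Compounds were titrated in complete medium ± 30% human serum, re-dosed after 3 days, on MT2 cells exposed for 3 h to HIVIIIB at MOI 0.5 then washed.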
row,SMILES,IC50 [µM]
1,"CC(C)C1=C2C3CCC4[C@@]5(C)CC[C@H](OC(=O)CC(C)(C)C(=O)O)C(C)(C)C5CC[C@@]4(C)[C@]3(C)CC[C@@]2(NC(=O)NCc2ccccn2)CC1=O (stereo partly drawn) [17-27, 3β-O-(3′,3′-Dimethylsuccinyl)-17β-[N′-(pyridin-2-ylmethyl)ureido]-21-oxolup-18-ene]",< 0.199
2,"CC(C)C1=C2[C@H]3CC[C@@H]4[C@@]5(C)CC[C@H](OC(=O)CC(C)(C)C(=O)O)C(C)(C)[C@@H]5CC[C@@]4(C)[C@]3(C)CC[C@@]2(NC(=O)Nc2ccncn2)CC1=O [17-46, 3β-O-(3′,3′-Dimethylsuccinyl)-17β-(N′-pyrimidin-4-yl-ureido)-21-oxolup-18-ene]",< 0.199
3,"CC(C)C1=C2C3CCC4[C@@]5(C)CC[C@H](OC(=O)CC(C)(C)C(=O)O)C(C)(C)C5CC[C@@]4(C)[C@]3(C)CC[C@@]2(NC(=O)OCC2CCN(C)C2)CC1=O (stereo partly drawn) [20-21, 3β-O-(3′,3′-Dimethylsuccinyl)-17β-(1-methylpyrrolidine-3-methoxycarbonylamino)-21-oxolup-18-ene]",< 0.199
4,"CC(C)C1=C2C3CCC4[C@@]5(C)CC[C@H](OC(=O)CC(C)(C)C(=O)O)C(C)(C)C5CC[C@@]4(C)[C@]3(C)CC[C@@]2(NC(=O)c2nccn2C)CC1=O (stereo partly drawn) [19-26, 3β-O-(3′,3′-Dimethylsuccinyl)-17β-(1-methyl-1H-imidazole-2-amido)-21-oxolup-18-ene]",< 0.199
5,"CC(C)C1=C2C3CCC4[C@@]5(C)CC[C@H](OC(=O)CC(C)(C)C(=O)O)C(C)(C)C5CC[C@@]4(C)[C@]3(C)CC[C@@]2(NC(=O)N[C@@H](C)C2CCCCC2)CC1=O (stereo partly drawn) [17-54, 3β-O-(3′,3′-Dimethylsuccinyl)-17β-[N′-((S)-1-cyclohexyl-ethyl)ureido]-21-oxolup-18-ene]",< 0.199
6,"CC(C)C1=C2C3CCC4[C@@]5(C)CC[C@H](OC(=O)CC(C)(C)C(=O)O)C(C)(C)C5CC[C@@]4(C)[C@]3(C)CC[C@@]2(NC(=O)NCc2cccnc2)CC1=O (stereo partly drawn) [17-12, 3β-O-(3′,3′-Dimethylsuccinyl)-17β-[N′-(pyridin-3-ylmethyl)ureido]-21-oxolup-18-ene]",< 0.199
7,"CC(C)C1=C2[C@H]3CC[C@@H]4[C@@]5(C)CC[C@H](OC(=O)CC(C)(C)C(=O)O)C(C)(C)[C@@H]5CC[C@@]4(C)[C@]3(C)CC[C@@]2(NC(=O)Nc2cncnc2)CC1=O [17-44, 3β-O-(3′,3′-Dimethylsuccinyl)-17β-(N′-pyrimidin-5-yl-ureido)-21-oxolup-18-ene]",< 0.199
8,CC(C)C1=C2[C@H]3CC[C@@H]4[C@@]5(C)CC[C@H](OC(=O)CC(C)(C)C(=O)O)C(C)(C)[C@@H]5CC[C@@]4(C)[C@]3(C)CC[C@@]2(NC(=O)NC2CNC2)CC1=O [17-35],0.2 to 0.999
9,"CC(C)C1=C2C3CCC4[C@@]5(C)CC[C@H](OC(=O)CC(C)(C)C(=O)O)C(C)(C)C5CC[C@@]4(C)[C@]3(C)CC[C@@]2(NC(=O)C2CCCCC2)CC1=O (stereo partly drawn) [19-33, 3β-O-(3′,3′-Dimethylsuccinyl)-17β-cyclohexylamido-21-oxolup-18-ene]",< 0.199
10,"CC(C)C1=C2C3CCC4[C@@]5(C)CC[C@H](OC(=O)CC(C)(C)C(=O)O)C(C)(C)C5CC[C@@]4(C)[C@]3(C)CC[C@@]2(NC(=O)NCc2ncccn2)CC1=O (stereo partly drawn) [17-67, 3β-O-(3′,3′-Dimethylsuccinyl)-17β-[N′-(pyrimidin-2-ylmethyl)ureido]-21-oxolup-18-ene]",< 0.199
11,"CC(C)C1=C2C3CCC4[C@@]5(C)CC[C@H](OC(=O)CC(C)(C)C(=O)O)C(C)(C)C5CC[C@@]4(C)[C@]3(C)CC[C@@]2(NC(=O)OC2CCC2)CC1=O (stereo partly drawn) [20-9, 3β-O-(3′,3′-Dimethylsuccinyl)-17β-cyclobutyloxycarbonylamino-21-oxolup-18-ene]",< 0.199
12,"CC(C)C1=C2C3CCC4[C@@]5(C)CC[C@H](OC(=O)CC(C)(C)C(=O)O)C(C)(C)C5CC[C@@]4(C)[C@]3(C)CC[C@@]2(NC(=O)N2CC[C@@H](N)C2)CC1=O (stereo partly drawn) [17-42, 3β-O-(3′,3′-Dimethylsuccinyl)-17β-[((R)-3-amino-pyrrolidine-1-carbonyl)-amino]-21-oxolup-18-ene]",0.2 to 0.999
13,"CC(C)C1=C2C3CCC4[C@@]5(C)CC[C@H](OC(=O)CC(C)(C)C(=O)O)C(C)(C)C5CC[C@@]4(C)[C@]3(C)CC[C@@]2(NC(=O)NC(C)c2ccccn2)CC1=O (stereo partly drawn) [17-72, 3β-O-(3′,3′-Dimethylsuccinyl)-17β-[N′-(1-pyridin-2-yl-ethyl)-ureido]-21-oxolup-18-ene]",< 0.199
14,"CC(C)C1=C2C3CCC4[C@@]5(C)CC[C@H](OC(=O)CC(C)(C)C(=O)O)C(C)(C)C5CC[C@@]4(C)[C@]3(C)CC[C@@]2(NC(=O)c2ccccc2C(=O)O)CC1=O (stereo partly drawn) [19-61, 3β-O-(3′,3′-Dimethylsuccinyl)-17β-(2-carboxy-benzamido)-21-oxolup-18-ene]",< 0.199
15,"CC(C)C1=C2[C@H]3CC[C@@H]4[C@@]5(C)CC[C@H](OC(=O)CC(C)(C)C(=O)O)C(C)(C)[C@@H]5CC[C@@]4(C)[C@]3(C)CC[C@@]2(NC(=O)N2CCN(C(C)C)CC2)CC1=O [17-29, 3β-O-(3′,3′-Dimethylsuccinyl)-17β-[(4-isopropyl-piperazine-1-carbonyl)-amino]-21-oxolup-18-ene]",< 0.199
16,"CC(C)C1=C2[C@H]3CC[C@@H]4[C@@]5(C)CC[C@H](OC(=O)CC(C)(C)C(=O)O)C(C)(C)[C@@H]5CC[C@@]4(C)[C@]3(C)CC[C@@]2(NC(=O)Nc2ccccc2)CC1=O [17-3, 3β-O-(3′,3′-Dimethylsuccinyl)-17β-[N′-(phenyl)ureido]-21-oxolup-18-ene]",< 0.199
17,"CC(C)C1=C2C3CCC4[C@@]5(C)CC[C@H](OC(=O)CC(C)(C)C(=O)O)C(C)(C)C5CC[C@@]4(C)[C@]3(C)CC[C@@]2(NC(=O)OC2CCSCC2)CC1=O (stereo partly drawn) [20-14, 3β-O-(3′,3′-Dimethylsuccinyl)-17β-(tetrahydro-thiopyran-4-oxycarbonylamino)-21-oxolup-18-ene]",< 0.199
18,"CC(C)C1=C2[C@H]3CC[C@@H]4[C@@]5(C)CC[C@H](OC(=O)CC(C)(C)C(=O)O)C(C)(C)[C@@H]5CC[C@@]4(C)[C@]3(C)CC[C@@]2(NC(=O)C2CCNCC2)CC1=O [19-6, 3β-O-(3′,3′-Dimethylsuccinyl)-17β-(piperidine-4-amido)-21-oxolup-18-ene]",> 1
19,"CC(C)C1=C2C3CCC4[C@@]5(C)CC[C@H](OC(=O)CC(C)(C)C(=O)O)C(C)(C)C5CC[C@@]4(C)[C@]3(C)CC[C@@]2(NC(=O)NC2(c3ccccc3)CC2)CC1=O (stereo partly drawn) [17-66, 3β-O-(3′,3′-Dimethylsuccinyl)-17β-[N′-(1-phenyl-cyclopropyl)-ureido]-21-oxolup-18-ene]",< 0.199

# Same assay, conditions: Human immunodeficiency virus 1, MT2 cells, without human serum, average IC50 if tested more than once, read-out: MT2 (HIVIIIB) IC50 range
row,SMILES,IC50 [µM]
1,"CC(C)C1=C2C3CCC4[C@@]5(C)CC[C@H](OC(=O)CC(C)(C)C(=O)O)C(C)(C)C5CC[C@@]4(C)[C@]3(C)CC[C@@]2(NC(=O)C2CCCCC2)CC1=O (stereo partly drawn) [19-33, 3β-O-(3′,3′-Dimethylsuccinyl)-17β-cyclohexylamido-21-oxolup-18-ene]",< 0.199
2,"CC(C)C1=C2[C@H]3CC[C@@H]4[C@@]5(C)CC[C@H](OC(=O)CC(C)(C)C(=O)O)C(C)(C)[C@@H]5CC[C@@]4(C)[C@]3(C)CC[C@@]2(NC(=O)Nc2ccccc2)CC1=O [17-3, 3β-O-(3′,3′-Dimethylsuccinyl)-17β-[N′-(phenyl)ureido]-21-oxolup-18-ene]",< 0.199
3,"CC(C)C1=C2[C@H]3CC[C@@H]4[C@@]5(C)CC[C@H](OC(=O)CC(C)(C)C(=O)O)C(C)(C)[C@@H]5CC[C@@]4(C)[C@]3(C)CC[C@@]2(NC(=O)C2CCNCC2)CC1=O [19-6, 3β-O-(3′,3′-Dimethylsuccinyl)-17β-(piperidine-4-amido)-21-oxolup-18-ene]",< 0.199

# Same assay, conditions: MT2 cells, with 30% human serum, average IC50 if tested more than once, read-out: MT2 (HIVIIIB) with HS 30% IC50 range
row,SMILES,IC50 [µM]
1,"CC(C)C1=C2C3CCC4[C@@]5(C)CC[C@H](OC(=O)CC(C)(C)C(=O)O)C(C)(C)C5CC[C@@]4(C)[C@]3(C)CC[C@@]2(NC(=O)C2CC3CCC(C2)O3)CC1=O (stereo partly drawn) [19-71, 3β-O-(3′,3′-Dimethylsuccinyl)-17β-(8α-oxa-bicyclo[3.2.1]octane-3-amido)-21-oxolup-18-ene]",< 0.199

# Same assay, conditions: read-out: MT2 (HIVIIIB) with HS 30% IC50 range, MT2 cells, with 30% human serum, average IC50 if tested more than once
row,SMILES,IC50 [µM]
1,"CC(C)C1=C2C3CCC4[C@@]5(C)CC[C@H](OC(=O)CC(C)(C)C(=O)O)C(C)(C)C5CC[C@@]4(C)[C@]3(C)CC[C@@]2(NC(=O)N2CCC(N)CC2)CC1=O (stereo partly drawn) [17-23, 3β-O-(3′,3′-Dimethylsuccinyl)-17β-[(4-amino-piperidine-1-carbonyl)-amino]-21-oxolup-18-ene trifluoroacetate]",0.2 to 0.999
